These are literature values, as cited in US10238626B2, “Therapeutic compounds” (ARIZONA BOARD OF REGENTS ON BEHALF OF ARIZONA STATE …, priority 2017, dated 2019).

The term EC50 denotes the concentration needed to bring the measured effect to its halfway point. As a reminder, the Kd is the concentration at which binding is half-saturated.

In one data set the target is hRXRβ (Homo sapiens, UniProt P28702). The settings on record: read-out: EC50 for the hRXRβ isoform; literature (Santin et al. 2009).
Sequence of hRXRβ (P28702 whole entry, canonical isoform): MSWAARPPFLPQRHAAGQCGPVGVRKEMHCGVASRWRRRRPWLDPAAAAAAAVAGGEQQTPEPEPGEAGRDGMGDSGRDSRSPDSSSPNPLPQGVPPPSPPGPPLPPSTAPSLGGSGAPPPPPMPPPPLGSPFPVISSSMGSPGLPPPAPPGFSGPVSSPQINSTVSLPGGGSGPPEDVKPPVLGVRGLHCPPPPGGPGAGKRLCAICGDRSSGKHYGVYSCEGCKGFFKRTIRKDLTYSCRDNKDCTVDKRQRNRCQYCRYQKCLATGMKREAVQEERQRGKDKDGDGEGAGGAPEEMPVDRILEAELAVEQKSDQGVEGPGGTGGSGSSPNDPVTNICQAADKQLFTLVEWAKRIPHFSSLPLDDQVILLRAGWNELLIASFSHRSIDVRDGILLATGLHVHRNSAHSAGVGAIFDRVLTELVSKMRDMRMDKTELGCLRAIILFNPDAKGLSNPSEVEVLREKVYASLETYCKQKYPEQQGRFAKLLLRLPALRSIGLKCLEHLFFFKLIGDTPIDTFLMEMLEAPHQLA
For data set [1], the target named is hRXR. The settings on record: Caco-2 cells; literature (Wagner et al. 2009).
Data set [2] deals with hRXR. The note with it: Caco-2 cells; literature (Wagner et al. 2009). This is another data set of the same source.

Turning to `Cc1cc2c(cc1-c1cc(/C=C/C(=O)O)ccc1O)C(C)(C)CCC2(C)C` [CD3254], the EC50 at hRXRβ was roughly 10 nM.
As to `C=C(c1ccc(C(=O)O)c(F)c1)c1cc2c(cc1C)C(C)(C)CCC2(C)C` [compound 3], at hRXR [1], the Kd was 12 nM. The EC50 in the data set with hRXR [2] is 43 nM.
